These results are taken from ChEMBL document CHEMBL1133349, “Novel phenylpiperazine derivatives as dual cytokine regulators with TNF-alpha suppressing and IL-10 augmenting activity” (Bioorg Med Chem Lett, 2000).

The Inhibition is the percentage by which the read-out fell short of the control. What is called Ki is a dissociation constant, usually derived from enzyme kinetics or from competition with a known ligand. For orientation: bioavailability means the share of a dose that reaches the circulation, judged against a reference dose that is usually intravenous.

In data set [1] the test system is Mus musculus. Description: Ability to inhibit TNF-alpha in LPS-stimulated mice after oral administration by ELISA assay. It counts as functional. Details: concentration or dose not given beside the values. For orientation: In an ELISA, binding on a coated surface is turned into a signal by an enzyme label.
The subject of data set [2] is Mus musculus. Briefly: Ability to augment IL-10 in LPS-stimulated mice after oral administration by ELISA assay. It counts as functional. Details: concentration or dose not given beside the values.
Data set [3] has as its target T1, Adrenergic receptor alpha-1 (Rattus norvegicus, UniProt P15823+P23944+P43140).
T1 sequence (P15823 whole entry): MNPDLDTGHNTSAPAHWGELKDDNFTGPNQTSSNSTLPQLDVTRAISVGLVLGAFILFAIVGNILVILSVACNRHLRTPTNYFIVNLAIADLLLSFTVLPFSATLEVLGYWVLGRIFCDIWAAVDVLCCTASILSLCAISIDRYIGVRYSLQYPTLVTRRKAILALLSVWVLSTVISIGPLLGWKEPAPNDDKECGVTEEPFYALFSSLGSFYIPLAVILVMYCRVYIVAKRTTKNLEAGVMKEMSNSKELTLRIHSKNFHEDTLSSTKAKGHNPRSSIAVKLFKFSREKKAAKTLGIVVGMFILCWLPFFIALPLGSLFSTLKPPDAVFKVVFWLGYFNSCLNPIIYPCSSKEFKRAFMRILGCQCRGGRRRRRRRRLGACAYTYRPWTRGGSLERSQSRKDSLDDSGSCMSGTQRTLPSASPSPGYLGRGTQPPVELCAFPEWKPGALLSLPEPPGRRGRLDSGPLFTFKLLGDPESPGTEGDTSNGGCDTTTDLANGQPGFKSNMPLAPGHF
T1 sequence (P23944 whole entry): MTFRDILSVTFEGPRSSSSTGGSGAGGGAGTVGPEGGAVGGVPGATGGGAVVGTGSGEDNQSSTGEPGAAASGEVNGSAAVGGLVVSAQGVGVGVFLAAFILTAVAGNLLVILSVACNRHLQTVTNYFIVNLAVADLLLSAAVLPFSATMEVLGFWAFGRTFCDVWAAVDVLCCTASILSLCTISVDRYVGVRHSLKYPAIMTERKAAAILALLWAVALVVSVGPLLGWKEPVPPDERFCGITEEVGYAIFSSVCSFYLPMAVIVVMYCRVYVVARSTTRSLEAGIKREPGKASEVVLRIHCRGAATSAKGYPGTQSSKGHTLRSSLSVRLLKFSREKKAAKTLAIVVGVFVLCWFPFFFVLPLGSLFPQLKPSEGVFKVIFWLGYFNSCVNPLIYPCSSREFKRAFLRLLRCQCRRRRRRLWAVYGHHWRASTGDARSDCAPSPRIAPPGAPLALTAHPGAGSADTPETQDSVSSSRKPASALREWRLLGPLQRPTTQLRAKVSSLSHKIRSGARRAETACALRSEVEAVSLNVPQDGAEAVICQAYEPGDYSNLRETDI
T1 sequence (P43140 whole entry): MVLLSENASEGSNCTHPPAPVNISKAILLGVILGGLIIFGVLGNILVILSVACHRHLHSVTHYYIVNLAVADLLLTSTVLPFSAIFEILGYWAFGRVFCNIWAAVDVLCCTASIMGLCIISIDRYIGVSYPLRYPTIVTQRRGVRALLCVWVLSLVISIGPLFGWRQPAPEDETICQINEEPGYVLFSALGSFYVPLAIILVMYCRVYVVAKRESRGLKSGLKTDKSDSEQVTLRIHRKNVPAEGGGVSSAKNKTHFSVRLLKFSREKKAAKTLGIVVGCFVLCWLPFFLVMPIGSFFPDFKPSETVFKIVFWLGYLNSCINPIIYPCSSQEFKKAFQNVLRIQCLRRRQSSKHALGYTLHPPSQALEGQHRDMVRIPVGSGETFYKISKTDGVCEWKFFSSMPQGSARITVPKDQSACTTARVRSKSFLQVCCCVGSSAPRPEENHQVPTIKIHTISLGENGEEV
Description: Binding affinity towards Alpha-1 adrenergic receptor. It counts as protein assay.

Data set [4] has as its target T2, 5-hydroxytryptamine receptor 1A (Rattus norvegicus, UniProt P19327).
T2 sequence (P19327 whole entry): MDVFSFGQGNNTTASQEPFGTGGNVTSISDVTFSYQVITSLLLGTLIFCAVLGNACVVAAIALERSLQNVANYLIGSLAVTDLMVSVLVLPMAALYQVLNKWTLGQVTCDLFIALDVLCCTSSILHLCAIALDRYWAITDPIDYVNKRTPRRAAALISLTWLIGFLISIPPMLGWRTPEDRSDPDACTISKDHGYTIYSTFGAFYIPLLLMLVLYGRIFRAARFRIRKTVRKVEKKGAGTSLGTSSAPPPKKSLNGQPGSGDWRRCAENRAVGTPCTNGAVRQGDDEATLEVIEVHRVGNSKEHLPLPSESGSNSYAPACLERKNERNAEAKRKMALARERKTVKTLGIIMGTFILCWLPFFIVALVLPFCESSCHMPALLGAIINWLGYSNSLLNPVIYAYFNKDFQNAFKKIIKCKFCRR
Briefly: Binding affinity towards 5-hydroxytryptamine 1A receptor.

Data set [5] has as its target Serotonin 2 (5-HT2) receptor (Homo sapiens, UniProt P41595+P28223+P28335). Description: Binding affinity towards 5-hydroxytryptamine 2 receptor. Type of data set: protein assay.
The target in a further data set is D(2) dopamine receptor (Bos taurus, UniProt P20288). Description: Binding affinity towards Dopamine receptor D2.
The species named for data set [6] is Mus musculus. Description: Dose that prevented shock death in mice. Type of data set: functional.
Data set [7] in a line: Oral bioavailability at a dose of 30 mg/kg in rats. The note with it: rat, in vivo. It counts as ADME, organism-based.
In data set [8] the test system is Mus musculus. Description: Ability of compound to prevent shock death in mice expressed as no of mice that survived out of 10 at a dose of 10 mg/kg. Type of data set: functional.

Structures are written as SMILES.

D(2) dopamine receptor, sequence (P20288 whole entry): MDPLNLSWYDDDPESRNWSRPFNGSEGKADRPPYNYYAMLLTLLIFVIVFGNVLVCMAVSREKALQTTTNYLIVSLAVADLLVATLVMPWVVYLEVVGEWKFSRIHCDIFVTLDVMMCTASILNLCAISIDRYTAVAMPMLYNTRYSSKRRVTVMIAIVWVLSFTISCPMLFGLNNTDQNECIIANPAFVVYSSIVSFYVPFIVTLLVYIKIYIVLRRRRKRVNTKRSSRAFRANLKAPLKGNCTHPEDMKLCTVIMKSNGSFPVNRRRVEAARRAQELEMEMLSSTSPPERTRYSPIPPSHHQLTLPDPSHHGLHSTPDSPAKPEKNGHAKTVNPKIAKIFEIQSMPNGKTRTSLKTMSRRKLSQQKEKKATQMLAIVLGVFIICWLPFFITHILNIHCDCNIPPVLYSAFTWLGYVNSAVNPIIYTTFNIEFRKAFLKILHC

Consider `N=C(N)NCc1ccc(CCCCN2CCN(c3ccccc3)CC2)cc1`, for which, in the data set with Mus musculus [1], the Inhibition is recorded as 39%. For the same compound, the “IL-10 level (% of control)” value with Mus musculus [2] amounted to 124%.

`CC(=O)NCCc1ccc(CCCCN2CCN(c3ccccc3)CC2)cc1` came in with an Inhibition in the data set with Mus musculus [1] of 76%. Also, the “IL-10 level (% of control)” value in the data set on Mus musculus [2] is 292%.

As for `Nc1nc(-c2ccc(CCCCN3CCN(c4ccccc4)CC3)cc2)cs1`, the Ki in data set [3] turned out to be 0.0079 µM; in [4], 0.0038 µM; in data set [5], 0.037 µM; on D(2) dopamine receptor, 0.0055 µM. The Inhibition with Mus musculus [1] turned out to be 87%. Besides, the “IL-10 level (% of control)” value in the data set with Mus musculus [2] was 382%.

As for `c1ccc(CCCCN2CCN(c3ccccc3)CC2)cc1`, in the data set on Mus musculus [1], the Inhibition is recorded as 77%. Besides, the “IL-10 level (% of control)” value in the data set on Mus musculus [2] is reported as 337%.

Take `CC(=O)NCc1ccc(CN2CCN(c3ccc(F)cc3)CC2)cc1`: the Ki (in [3]; in [4]; in data set [5]; on D(2) dopamine receptor) was greater than 1 µM in each case. Further, in the data set with Mus musculus [1], the Inhibition came out at 87%. In the data set with Mus musculus [2], the “IL-10 level (% of control)” value was found to be 1494%.

As to `CC(=O)NCc1ccc(CCN2CCN(c3ccccc3)CC2)cc1`, the Ki is 0.069 µM in data set [3], 0.0029 µM in data set [4], 0.13 µM in [5] and 0.17 µM on D(2) dopamine receptor. Moreover, the Inhibition in the data set on Mus musculus [1] was 96%. Moreover, in the data set on Mus musculus [2], the “IL-10 level (% of control)” value is 2784%.

For `CC(=O)NCc1ccc(CN2CCN(c3ccccc3)CC2)cc1`, the inhibition constant (Ki) is greater than 1 µM in data set [3], 0.14 µM in [4], greater than 1 µM in data set [5] and greater than 1 µM on D(2) dopamine receptor. Besides, in the data set with Mus musculus [1], the Inhibition came to 89%. Also, the “IL-10 level (% of control)” value in the data set on Mus musculus [2] is 376%.

Take `CC(=O)NCc1ccc(CCCCN2CCN(c3ccccc3)CC2)cc1`: the Ki came to 0.0046 µM in [3], 0.006 µM in [4], 0.048 µM in data set [5] and 0.049 µM at D(2) dopamine receptor. The Inhibition with Mus musculus [1] was 94%. Also, the “IL-10 level (% of control)” value in the data set with Mus musculus [2] is given as 1337%.

`CC(=O)Nc1ccc(CCCCN2CCN(c3ccccc3)CC2)cc1` returned an Inhibition in the data set on Mus musculus [1] of 88%. In addition, in the data set with Mus musculus [2], the “IL-10 level (% of control)” value came out at 585%.

On to `CC(=O)NCCCc1ccc(CCCCN2CCN(c3ccccc3)CC2)cc1`, for which the Inhibition in the data set with Mus musculus [1] was found to be 68%. In addition, the “IL-10 level (% of control)” value with Mus musculus [2] was determined as 146%.

In the data set filed under Mus musculus [6], `CC(=O)NCc1ccc(CN2CCN(c3ccc(F)cc3F)CC2)cc1` yielded a Dose of 10 mg/kg. The Ki (in [3]; in data set [5]; at D(2) dopamine receptor) was greater than 1 µM throughout. For the same compound, the bioavailability in [7] came to 95.5%. This compound also displayed an Inhibition in the data set on Mus musculus [1] of 91%. For the same compound, the “IL-10 level (% of control)” value in the data set with Mus musculus [2] is 2293%. The compound also showed a Survival in the data set with Mus musculus [8] of 8.

Turning to `N/C(S)=N/Cc1ccc(CCCCN2CCN(c3ccccc3)CC2)cc1`, the Inhibition with Mus musculus [1] is reported as 69%. For the same compound, the “IL-10 level (% of control)” value in the data set with Mus musculus [2] was 129%.

In the case of `CC(=O)NCc1ccc(CCCN2CCN(c3ccccc3)CC2)cc1`, the Ki came out at 0.0064 µM in data set [3], 0.033 µM in [4], 0.16 µM in [5] and 0.34 µM at D(2) dopamine receptor. The same compound yielded an Inhibition in the data set on Mus musculus [1] of 97%. Also, the “IL-10 level (% of control)” value in the data set on Mus musculus [2] stood at 1805%.

In the data set with Mus musculus [1], `NC(=O)NCc1ccc(CCCCN2CCN(c3ccccc3)CC2)cc1` yielded an Inhibition of 85%. For the same compound, the “IL-10 level (% of control)” value with Mus musculus [2] is 253%.

Take `CC(=O)NCc1ccc(CN2CCN(c3ccc(Cl)cc3)CC2)cc1`: the Ki (in data set [3]; in data set [4]; in data set [5]; on D(2) dopamine receptor) was greater than 1 µM each time. Moreover, in the data set on Mus musculus [1], the Inhibition is 65%. Further, the “IL-10 level (% of control)” value with Mus musculus [2] came to 361%.

For the compound `COc1ccc(N2CCN(Cc3ccc(CNC(C)=O)cc3)CC2)cc1`, the Ki (in data set [3]; in data set [4]; in data set [5]; on D(2) dopamine receptor) was greater than 1 µM throughout. For the same compound, in the data set with Mus musculus [1], the Inhibition was 74%. For the same compound, the “IL-10 level (% of control)” value with Mus musculus [2] was determined as 449%.
